From patent US10301664B2, “Repurposing non-antimicrobial drugs and clinical molecules to treat bacterial infections” (Purdue Research Foundation, priority 2015, dated 2019)
Converted amounts (≈) assume the structure as drawn. Where two headings read alike, the source gives them in different places.

Tests used:
[1] = system: MRSA (23) clinical isolates; experiment: MIC against Gram +ve clinical isolates: MRSA; assay type: cell-based, S. aureus; details: for MIC50: MRSA (23)
[2] = system: Colistin resistant clinical isolates of P. aeruginosa; experiment: MIC against G-ve with and without colistin: colistin resistant P. aeruginosa; assay type: cell-based; details: without colistin
[3] = system: VRE (14) clinical isolates; experiment: MIC against Gram +ve clinical isolates: VRE; assay type: cell-based, enterococcus
[4] = cited from earlier work
P. aeruginosa = experiment: MIC against G-ve with and without colistin: P. aeruginosa; assay type: cell-based; details: without colistin
MRSA USA300 = experiment: Mouse model of MRSA systemic infection (lethal); assay type: in vivo, BALB/c mice; details: oral 30 mg/kg once daily, three doses
Text: For MRSA systemic infection, neutropenic Female BALB/c mice were inoculated IP with 1×10^9 MRSA USA300.

[5] = system: VISA and VRSA (14) clinical isolates; experiment: MIC against Gram +ve clinical isolates: VISA and VRSA; assay type: cell-based, S. aureus; details: Staphylococcus aureus
[6] = system: mitochondrial protein synthesis in J774A.1 cells; experiment: Mitochondrial biogenesis in-cell ELISA (COX-I / SDH-A); assay type: cell-based; details: J774A.1 cells treated for three days
Text: Due to concern about the possible mitochondrial toxicities associated with many antibacterial protein synthesis inhibitors such as linezolid and chloramphenicol, we tested the effect of Auranofin and Ebselen on mitochondrial protein synthesis directly within the mammalian cells.

A. baumannii = experiment: MIC against G-ve with and without colistin: A. baumannii; assay type: cell-based
K. pneumonia = experiment: MIC against G-ve with and without colistin: K. pneumonia; assay type: cell-based; details: without colistin
[7] = system: A. baumannii ATCC BAA-1605; experiment: Library hits: MIC against A. baumannii; assay type: cell-based
[8] = in vivo
[9] = system: K. pneumoniae ATCC BAA-1705; experiment: Library hits: MIC against K. pneumoniae; assay type: cell-based
P. aeruginosa ATCC 15442 = experiment: Library hits: MIC against P. aeruginosa; assay type: cell-based

## O=c1c2ccccc2[se]n1-c1ccccc1 [Ebselen]
[1]; second column per drug
  MIC50: 0.25 µg/mL (≈ 0.912 µM)
[1]; Staphylococcus aureus, MRSA, read-out: MIC90 (MICs at which 90% of MRSA isolates were inhibited)
  MIC90: 0.25 µg/mL (≈ 0.912 µM)
[1]; Staphylococcus aureus, read-out: MIC50
  MIC50: 0.25 µg/mL (≈ 0.912 µM)
[2]
  MIC, colistin (−): >256 µg/mL
[3]; Enterococcus, read-out: MIC50
  MIC50: 0.5 µg/mL (≈ 1.82 µM)
[3]; second column per drug
  MIC50: 0.5 µg/mL (≈ 1.82 µM)
[4]; 30 mg/kg dose
  increase in selenium concentration in the blood: 0.84±0.1 mg/L^−1
  plasma concentration: 2910 ng/mL
[4]; in vivo
  clinically achievable blood concentration: 2.91 µg/mL
P. aeruginosa
  MIC, colistin (−): >256 µg/mL
MRSA USA300
  mice survival: 60%
[5]
  MIC50: 0.125 µg/mL (≈ 0.456 µM)
[5]; read-out: MIC50
  MIC50: 0.25 µg/mL (≈ 0.912 µM)
[6]
  inhibition of mitobiogenesis: less than 10%
A. baumannii; with sub-inhibitory colistin 0.0625 μg/ml
  MIC, colistin (+): 0.25 µg/mL (≈ 0.912 µM)
A. baumannii; without colistin
  MIC, colistin (−): 16 µg/mL (≈ 58.4 µM)
K. pneumonia
  MIC, colistin (−): 64 µg/mL (≈ 233 µM)

## O=c1[nH]c(=O)n([C@H]2C[C@H](O)[C@@H](CO)O2)cc1F [FdUrd, 5-fluoro-2′-deoxyuridine]
[7]
  MIC/MBC: >16 µM
[8]
  achieved plasma concentration after a therapeutic dose relative to required MIC90 against MRSA: more than a thousand-folds higher
[9]
  MIC/MBC: 8 µM (≈ 1.97 µg/mL)
P. aeruginosa ATCC 15442
  MIC/MBC: >16 µM
